Consider 24 compounds from PubChem BioAssay (NCI).

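Method: 48-hour compound exposure of cells in 96-well plates, five concentrations, linear interpolation of endpoints. TGI denotes the concentration required for complete inhibition of growth.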

Test systems include HL-60(TB) leukemia; SF-295 CNS; A549 NSCLC; CCRF-CEM leukemia; M14 melanoma; SK-MEL-2 melanoma; NCI-H226 lung; SNB-75 CNS; OVCAR-3 ovarian; SR leukemia.
Holding throughout (experiment): growth of human tumour cells (NCI), 48 h

With `N#CCC(=O)N1CCCCCCC1`, the TGI is 78 µM with HL-60(TB) leukemia; above 100 µM with SF-295 CNS; above 100 µM in the assay on A549 NSCLC; above 100 µM with CCRF-CEM leukemia; above 100 µM in the assay with M14 melanoma; above 100 µM in the assay with SK-MEL-2 melanoma.
Consider `CCN(CC)CC(=N)N(CC)c1ccccc1`, for which the TGI with HL-60(TB) leukemia, with NCI-H226 lung, in the assay on SF-295 CNS, with SNB-75 CNS, with A549 NSCLC and with OVCAR-3 ovarian was above 100 µM in each case. The TGI in the assay with CCRF-CEM leukemia, with M14 melanoma and in the assay with SK-MEL-2 melanoma was above 100 µM in each case.
Consider `C=CCn1c(-c2ccc([N+](=O)[O-])cc2)csc1=N`, for which the TGI with HL-60(TB) leukemia is 45.2 µM; in the assay on NCI-H226 lung, above 100 µM; in the assay on SF-295 CNS, above 100 µM; with SNB-75 CNS, 95.6 µM; in the assay with A549 NSCLC, above 100 µM; in the assay with OVCAR-3 ovarian, above 100 µM. The TGI in the assay on CCRF-CEM leukemia is 34.7 µM; in the assay on M14 melanoma, above 100 µM; with SK-MEL-2 melanoma, above 100 µM.
For `Cn1c(=O)c2/c(n(C)c1=O)=N\C=c1\c(=O)n(C)c(=O)n(C)\c1=N\C=2`, the TGI with HL-60(TB) leukemia, with SF-295 CNS, in the assay with SNB-75 CNS, with A549 NSCLC, in the assay with OVCAR-3 ovarian and with CCRF-CEM leukemia was above 100 µM each time. Besides, the TGI with M14 melanoma and in the assay on SK-MEL-2 melanoma was above 100 µM each time.
In the case of `N#CC(C#N)=C1C(=O)NC(N)=C1C#N`, the TGI with HL-60(TB) leukemia, with NCI-H226 lung, with SF-295 CNS, in the assay on A549 NSCLC, in the assay with CCRF-CEM leukemia and with M14 melanoma was above 100 µM each time. Also, in the assay with SK-MEL-2 melanoma, the TGI was above 100 µM.
With `Cc1ccc(-n2cc([Si](C)(C)C)nn2)s1`, the TGI with NCI-H226 lung, with SF-295 CNS, in the assay with A549 NSCLC, in the assay on OVCAR-3 ovarian, in the assay with M14 melanoma and in the assay on SK-MEL-2 melanoma was above 100 µM in each case.
As to `CCOc1ccc2c(c1)c(=O)c1c(NCCN(CC)CC)ccc3nnn2c31`, the TGI in the assay on NCI-H226 lung is above 100 µM; in the assay with SF-295 CNS, above 56.4 µM; in the assay with A549 NSCLC, above 55.5 µM; in the assay with OVCAR-3 ovarian, above 100 µM; in the assay with CCRF-CEM leukemia, 25.7 µM; with M14 melanoma, above 54.8 µM. For the same compound, the TGI is above 100 µM in the assay on SK-MEL-2 melanoma and 50.1 µM in the assay on SR leukemia.
With `O=C1CSc2cc([N+](=O)[O-])ccc2N1`, the TGI in the assay with NCI-H226 lung, in the assay with SF-295 CNS, in the assay on SNB-75 CNS, with A549 NSCLC, with OVCAR-3 ovarian and with CCRF-CEM leukemia was above 100 µM throughout. Besides, the TGI with M14 melanoma and with SK-MEL-2 melanoma was above 100 µM throughout.
In the case of `COc1ccc(C2=NN=C3C(c4ccccc4)=Nc4ccccc4N3C2)cc1`, the TGI in the assay with HL-60(TB) leukemia is 38.5 µM; with NCI-H226 lung, above 100 µM; in the assay with A549 NSCLC, above 100 µM; in the assay with OVCAR-3 ovarian, 6.52 µM; in the assay with CCRF-CEM leukemia, 8.24 µM; with M14 melanoma, 83.8 µM. In addition, the values for the TGI in the assay with SK-MEL-2 melanoma and in the assay with SR leukemia were above 100 µM and 49.5 µM, respectively.
As to `CC1(C)N=C(c2ccccn2)C(c2ccccn2)=NC1(C)C`, the TGI in the assay with HL-60(TB) leukemia, in the assay with NCI-H226 lung, with SF-295 CNS, in the assay with A549 NSCLC, in the assay with OVCAR-3 ovarian and in the assay on CCRF-CEM leukemia was above 100 µM in each case. Besides, the TGI with M14 melanoma, in the assay on SK-MEL-2 melanoma and in the assay with SR leukemia was above 100 µM in each case.
As to `CSc1scc2c1/C(=N/NC(N)=O)CCC2`, the TGI in the assay with NCI-H226 lung, with SF-295 CNS, in the assay with SNB-75 CNS, in the assay on A549 NSCLC, with OVCAR-3 ovarian and in the assay with CCRF-CEM leukemia was above 100 µM each time. Besides, the TGI with M14 melanoma and with SK-MEL-2 melanoma was above 100 µM throughout.
With `NC(CSSCC(N)Cc1ccccc1)Cc1ccccc1` (stereo unspecified), the TGI in the assay on HL-60(TB) leukemia was 74.4 µM; in the assay on SF-295 CNS, above 100 µM; in the assay with A549 NSCLC it was above 100 µM; with OVCAR-3 ovarian, above 100 µM; in the assay on CCRF-CEM leukemia, above 100 µM; in the assay with M14 melanoma it was 63.4 µM. For the same compound, the TGI with SK-MEL-2 melanoma came out at 88.7 µM; in the assay with SR leukemia it was 91.7 µM.
With `C=C1C(=O)OC2CC3(C)OC3CC/C(C)=C/C(OC(C)=O)C12` (stereo unspecified), the TGI with HL-60(TB) leukemia is 3.4 µM; in the assay on NCI-H226 lung, 26.8 µM; in the assay on SF-295 CNS it was 27.4 µM; in the assay on SNB-75 CNS, 22 µM; in the assay with A549 NSCLC, 33.7 µM; in the assay with OVCAR-3 ovarian, 34.7 µM. For the same compound, the TGI with CCRF-CEM leukemia stood at 12.7 µM; in the assay on M14 melanoma, 9.86 µM; in the assay with SK-MEL-2 melanoma it was 31.5 µM.
`CCN1CCC(O)(/C=C/c2ccc(OC)cc2)C(C(=O)/C=C/c2ccc(OC)cc2)C1` (stereo unspecified): the TGI in the assay with HL-60(TB) leukemia amounted to 52.2 µM; in the assay on NCI-H226 lung it was 29.7 µM; with SF-295 CNS, 29.2 µM; in the assay on A549 NSCLC it was 34 µM; in the assay with OVCAR-3 ovarian, 27.6 µM; with CCRF-CEM leukemia, 5.76 µM. The TGI worked out at 34.1 µM with M14 melanoma and 26.4 µM in the assay with SR leukemia.
In the case of `COc1ccc(Nc2nc(N)c(C(=O)c3cccs3)s2)cc1`, the TGI with HL-60(TB) leukemia was above 22.8 µM; in the assay on NCI-H226 lung, 19.2 µM; with SF-295 CNS it was above 100 µM; in the assay with A549 NSCLC it was above 47.8 µM; with OVCAR-3 ovarian, above 32.4 µM; in the assay on CCRF-CEM leukemia, 12.8 µM. In addition, the TGI with M14 melanoma is 34.6 µM; in the assay with SK-MEL-2 melanoma it was above 51.4 µM; in the assay on SR leukemia it was 5.88 µM.
Regarding `CC(C)(C)OC(=O)NCC(=O)N1CCN(C(=O)CNC(=O)OC(C)(C)C)CC1`, the TGI in the assay with HL-60(TB) leukemia, in the assay on NCI-H226 lung, in the assay on SF-295 CNS, with A549 NSCLC, in the assay on OVCAR-3 ovarian and with CCRF-CEM leukemia was above 100 µM each time. For the same compound, the TGI in the assay with M14 melanoma, in the assay with SK-MEL-2 melanoma and with SR leukemia was above 100 µM throughout.
`O=c1ccc2ccc(O)cc2o1`: the TGI in the assay on HL-60(TB) leukemia, in the assay on NCI-H226 lung, in the assay on SF-295 CNS, in the assay on SNB-75 CNS, in the assay with A549 NSCLC and in the assay with OVCAR-3 ovarian was above 100 µM throughout. For the same compound, the TGI with CCRF-CEM leukemia, in the assay with M14 melanoma and in the assay on SK-MEL-2 melanoma was above 100 µM throughout.
Consider `C[N+](C)(CCNC(=O)c1cccc2cc3ccccc3nc12)Cc1ccc([N+](=O)[O-])s1`, for which the TGI in the assay with HL-60(TB) leukemia, in the assay on NCI-H226 lung, with SF-295 CNS, in the assay on SNB-75 CNS, in the assay on A549 NSCLC and in the assay with OVCAR-3 ovarian was above 25 µM in each case. Besides, the TGI in the assay with CCRF-CEM leukemia, in the assay with M14 melanoma and with SK-MEL-2 melanoma was above 25 µM in each case.
`O=C(CSc1nc2ccccc2c(=O)n1-c1ccccc1)N=Nc1c(O)[nH]c2ccc(F)cc12`: the TGI with HL-60(TB) leukemia is 3.96 µM; in the assay with A549 NSCLC, 21.6 µM; in the assay on OVCAR-3 ovarian, 3.91 µM; with CCRF-CEM leukemia, 5.04 µM; in the assay with M14 melanoma, 4.57 µM; with SK-MEL-2 melanoma, 3.59 µM. Also, the TGI in the assay on SR leukemia turned out to be 4.21 µM.
With `CN1C/C(=C\C=C\c2ccccc2)C(=O)/C(=C/C=C/c2ccccc2)C1`, the TGI in the assay with NCI-H226 lung, with SF-295 CNS, in the assay with SNB-75 CNS, in the assay on A549 NSCLC, in the assay on OVCAR-3 ovarian and with CCRF-CEM leukemia was above 100 µM in each case. Besides, the TGI with M14 melanoma and in the assay on SK-MEL-2 melanoma was above 100 µM in each case.
As for `O=c1c2ccccc2nc(N/N=C/c2ccccc2O)n1-c1ccccc1`, the TGI was 8.07 µM in the assay on HL-60(TB) leukemia; above 100 µM with NCI-H226 lung; above 100 µM in the assay with SF-295 CNS; above 100 µM in the assay with SNB-75 CNS; above 100 µM in the assay with A549 NSCLC; 17.2 µM in the assay on OVCAR-3 ovarian. Also, the TGI in the assay with CCRF-CEM leukemia, in the assay with M14 melanoma and with SK-MEL-2 melanoma was above 100 µM in each case.
Take `O=[N+]([O-])C(Cl)=C/C(=C(\Cl)SCc1ccccc1)[N+](=O)[O-]`: the TGI was 23.8 µM with HL-60(TB) leukemia; 75.9 µM in the assay on NCI-H226 lung; 99.6 µM with SF-295 CNS; above 100 µM in the assay with SNB-75 CNS; 73.5 µM with A549 NSCLC; 32 µM in the assay on OVCAR-3 ovarian. Besides, the TGI was 18 µM with CCRF-CEM leukemia, 53.8 µM in the assay with M14 melanoma and 76.5 µM in the assay with SK-MEL-2 melanoma.
Regarding `CCCC(=O)[O-].N.N.N.N.N.[Co+3].[O-][Cl+3]([O-])([O-])[O-]`, the TGI in the assay on SF-295 CNS, with SNB-75 CNS, with A549 NSCLC, in the assay on OVCAR-3 ovarian, with CCRF-CEM leukemia and with M14 melanoma was above 100 µM in each case. Further, in the assay on SK-MEL-2 melanoma, the TGI is above 100 µM.
For the compound `CC(=O)N/C(=C\c1ccc(Cc2nc3c([nH]2)C(=O)c2ccccc2C3=O)cc1)c1nc2c([nH]1)C(=O)c1ccccc1C2=O`, the TGI with HL-60(TB) leukemia, with NCI-H226 lung, in the assay on SF-295 CNS, in the assay on SNB-75 CNS, in the assay with A549 NSCLC and in the assay on OVCAR-3 ovarian was above 100 µM in each case. Besides, the TGI in the assay on CCRF-CEM leukemia, with M14 melanoma and in the assay on SK-MEL-2 melanoma was above 100 µM in each case.
